Where a name gives a salt, the structure may show the parent alone. *1 amine or outer side, *2 acyl side, *3 side chain or, on linkers, in order; H or OH if unused. Where a SMILES comes first, the peptide text is derived from it. [ ]: non-standard residue; d: D form. X1 = NCCCC[C@H](N)CN([C@@H](CCCCN)C(=O)[*:2])[*:1]; Tle = CC(C)(C)[C@H](N)C(=O)O
Tests used:
[1] = test system: hippocampal neurons from Ntsr1^Venus/Venus mice; assay: Intracellular calcium release (Fluo-4) in hippocampal neurons from Ntsr1^Venus/Venus mice; format: cell-based, mouse
Method: To isolate hippocampal neurons, P0 pups were removed from the cage of NTSR1-Venus homozygous knock-in breeding pairs. Pups were decapitated, brains were removed dorsal side up into fresh ice-cold Hank’s balanced salt solution (HBSS; Gibco, Grand Island, NY, USA), meninges were removed, and hippocampi were dissected into Hibernate A (Gibco, Grand Island, NY, USA) on ice. Tissue dissociation was carried out with the Papain Dissociation System according to the manufacturer’s protocol (Worthington Biochemical Corporation, Lakewood, NJ, USA). Neurons were plated on Poly-D-Lysine (Sigma) coated surfaces at 100,000 cells per 12 mm coverslip (NeuVitro, Camas, WA, USA) in a 24-well plate for immunostaining or 50,000 cells per well of an 8 well chamber slide (Ibidi, Grafelfing, Germany) for calcium measurements. Plating media [Neurobasal A (Gibco, Grand Island, NY, USA), 1% FBS (Fisher Scientific), 2% B-27 (Gibco, Grand Island, NY, USA), 0.5 mM GlutaMAX (Gibco, Grand Island, NY, USA), and 1x Penicillin/Streptomycin (Invitrogen, Waltham, MA, USA)] was exchanged 1 h after plating to maintenance media (Neurobasal A, 2% B-27, 0.5 mM GlutaMAX, and 1x Penicillin/Streptomycin). Half of the volume of media was exchanged for fresh media every 3–4 days. On day in vitro (DIV) 3 Cytosine arabinoside hydrochloride (Sigma) was added to media with a final concentration of 0.1 μM to decrease glial cell proliferation.
Hippocampal neurons were grown until DIV 7. Fluo-4 NW Calcium Assay kit (Thermo Fisher) was used according to the manufacturer’s protocol. Briefly, drugs were prepared at 4 μM stock solutions in the assay buffer provided without probenecid. […] Fluorescence was imaged with a 10x objective on an (Olympus, Shinjuku City, Tokyo, Japan) IX73 microscope (Fluo-4 em. 506 nm).
Live imaging settings of Fluo-4 were as follows, 79 ms exposure, 2 s intervals for 90 cycles (180 s). […] First regions of interest (ROI) were automatically determined using the analyze particles plug in. […] Relative fluorescence is defined as F/F0 where F corresponds to the cell fluorescence and F0 to the basal fluorescence.

[2] = test system: Ntsr1^Venus/Venus and Ntsr1^WT/WT mice; assay: Locomotor activity in activity boxes after i.p. injection; format: in vivo, mouse
Method: Locomotor activity was measured using Plexiglas activity boxes (20 × 20 × 20 cm) surrounded by horizontal and vertical infrared sensor beams (Versamax Omnitech Electronics, Columbus, OH, USA) during the light phase. The total numbers of animals used in locomotion experiments were n = 16 Ntsr1^Venus/Venus and n = 15 Ntsr1^WT/WT mice. Animals were habituated to the room in singly housed cages with home bedding for 1 h, before being injected with either 0.9% saline, 0.2, 0.5, 1, 5 mg/kg, PD149163, dissolved in 0.9% saline, and returned to their home cages for 30 min. Then mice were placed in horizontally opposed chambers, and horizontal movement (cm) was measured over the course of 2 h, in bins of 10 min.
Having established evidence supporting functional NTSR1-Venus receptor signaling (Gq/Ca2+) and receptor endocytosis we next evaluated behavioral responses in these animals. […] First, when animals were not yet habituated to the activity chambers and only received saline injections, we observed somewhat higher activity counts for Ntsr1^Venus/Venus compared to Ntsr1^WT/WT animals (Supplementary Figure 1). […] A significant difference at 0.2 mg/kg and a trend that was not significant at higher doses (0.5, 1, or 5 mg/kg) was observed between Ntsr1^Venus/Venus and Ntsr1^WT/WT animals (Figure 2I). […]

[3] = test system: hippocampal neurons from Ntsr1^WT/WT mice; assay: Intracellular calcium release (Fluo-4) in hippocampal neurons from Ntsr1^WT/WT mice; format: cell-based, mouse

CCOC(=O)[C@H](CC(C)C)NC(=O)[C@@H](NC(=O)[C@H](Cc1c[nH]c2ccccc12)NC(=O)[C@@H]1CCCN1C(=O)[C@H](CCCCN)NC[C@@H](N)CCCCN)C(C)(C)C [PD149163, PD149163 tetrahydrochloride hydrate] (H-[X1]PW[Tle]L-OEt; N-terminus and C-terminus assumed)
intracellular calcium peak increase ([1]; 0.1 μM): 2 fold
intracellular calcium peak increase ([1]; 1 μM): 2 fold
hypolocomotion in Ntsr1^Venus/Venus and Ntsr1^WT/WT animals ([2]; 0.5 mg/kg i.p., measured 30 min after injection): induced NTSR1 mediated hypolocomotion to a similar extent
total distance traveled over 2 h as compared to saline animals ([2]; i.p. 0.2, 0.5, 1, 5 mg/kg, both genotypes): dose-dependent decrease
intracellular calcium peak increase ([3]; 0.1 μM): 2 fold
intracellular calcium peak increase ([3]; 1 μM): 2 fold

Source: publication PMC9745132, “Visualization of real-time receptor endocytosis in dopamine neurons enabled by NTSR1-Venus knock-in mice” (Frontiers in Cellular Neuroscience, 2022)
